# Data: patent US10597388B2, “Pyridazinone herbicides” (FMC CORPORATION, priority 2014, dated 2020)
# Legend:
# Assay in all cases: Test D controlled growth environment herbicide test, pre- and postemergence
# Type in all cases: in vivo
# [1] = test system: pigweed (Amaranthus retroflexus)
# Description: (§1) Seeds of plant species selected from bluegrass (annual bluegrass, Poa annua), blackgrass (Alopecurus myosuroides), Canada thistle (Cirsium arvense), canarygrass (Phalaris minor), chickweed (common chickweed, Stellaria media), geranium, cutleaf (cutleaf geranium, Geranium dissectum), galium (catchweed bedstraw, Galium aparine), bromegrass, downy (downy bromegrass, Bromus tectorum), field poppy (Papaver rhoeas), field violet (Viola arvensis), foxtail, green (green foxtail, Setaria viridis), deadnettle (henbit deadnettle, Lamium amplexicaule), ryegrass, Italian (Italian ryegrass, Lolium multiflorum), kochia (Kochia scoparia), lambsquarters (Chenopodium album), oilseed rape (Brassica napus), pigweed (Amaranthus retroflexus), chamomile (scentless chamomile, Matricaria inodora), Russian thistle (Salsola kali), speedwell (bird's-eye speedwell, Veronica persica), barley, spring (spring barley, Hordeum vulgare), wheat, spring (spring wheat, Triticum aestivum), buckwheat, wild (wild buckwheat, Polygonum convolvulus), mustard, wild (wild mustard, Sinapis arvensis), oat, wild (wild oat, Avena fatua), radish, wild (wild radish, Raphanus raphanistrum), windgrass (Apera spica-venti), barley, winter (winter barley, Hordeum vulgare), and wheat, winter (winter wheat, Triticum aestivum) were planted into a silt loam soil and treated preemergence with test chemicals formulated in a non-phytotoxic solvent mixture which included a surfactant.
# (§2) At the same time, these species were planted in pots containing Redi-Earth® planting medium (Scotts Company, 14111 Scottslawn Road, Marysville, Ohio 43041) comprising spaghnum peat moss, vermiculite, wetting agent and starter nutrients and treated with postemergence applications of the test chemicals formulated in the same manner. Plants ranged in height from 2 to 18 cm (1- to 4-leaf stage). Treated plants and controls were maintained in a controlled growth environment for 14 to 21 d after which time all species were compared to controls and visually evaluated. Plant response ratings, summarized in Table D, are based on a scale of 0 to 100 where 0 is no effect and 100 is complete control. A dash (-) response means no test result.
# [2] = test system: speedwell (bird's-eye speedwell, Veronica persica)
# Description: as §1, §2
# [3] = test system: galium (catchweed bedstraw, Galium aparine)
# Description: as §1, §2
# [4] = test system: mustard, wild (wild mustard, Sinapis arvensis)
# Description: as §1, §2
# [5] = test system: kochia (Kochia scoparia)
# Description: as §1, §2
# [6] = test system: blackgrass (Alopecurus myosuroides)
# Description: as §1, §2
# [7] = test system: ryegrass, Italian (Italian ryegrass, Lolium multiflorum)
# Description: as §1, §2
# [8] = test system: bromegrass, downy (downy bromegrass, Bromus tectorum)
# Description: as §1, §2
# [9] = test system: chamomile (scentless chamomile, Matricaria inodora); conditions: Preemergence
# Description: as §1, §2
# [10] = test system: windgrass (Apera spica-venti)
# Description: as §1, §2
# [11] = test system: foxtail, green (green foxtail, Setaria viridis)
# Description: as §1, §2
# [12] = test system: deadnettle (henbit deadnettle, Lamium amplexicaule)
# Description: as §1, §2
# [13] = test system: buckwheat, wild (wild buckwheat, Polygonum convolvulus)
# Description: as §1, §2
# [14] = test system: oilseed rape (Brassica napus)
# Description: as §1, §2
# [15] = Postemergence, 31 g ai/ha, scale 0 to 100 (0 no effect, 100 complete control)
# [16] = Postemergence, 125 g ai/ha, visual rating on scale 0 (no effect) to 100 (complete control), 14 to 21 d
# [17] = Postemergence, 250 g ai/ha, scale 0 to 100 (0 no effect, 100 complete control)
# [18] = Preemergence, 62 g ai/ha, scale 0 to 100 (0 no effect, 100 complete control)
# [19] = Preemergence, 125 g ai/ha, scale 0 to 100 (0 no effect, 100 complete control)
# [20] = Preemergence, 250 g ai/ha, scale 0 to 100, 0 no effect, 100 complete control
# [21] = postemergence, 62 g ai/ha, scale 0 to 100, 0 no effect, 100 complete control
compound,measurement,setting,value
CCc1sc2ccc(C)cc2c1-c1c(O)c(C)nn(C)c1=O [Compound 47],Pigweed plant response rating,[1]; [15],75
same,"Plant response rating, Pigweed",[1]; [16],100
same,"Plant response rating, Pigweed",[1]; [17],100
same,"Plant response rating (scale of 0 to 100), Pigweed","[1]; Preemergence, 31 g ai/ha",70
same,"Plant response rating, Pigweed",[1]; [18],100
same,"Plant response rating, Pigweed",[1]; [19],100
same,"Plant response rating, Pigweed",[1]; [20],100
same,"Plant response rating, Pigweed",[1]; [21],75
same,Speedwell plant response rating,[2]; [15],10
same,"Plant response rating, Speedwell",[2]; [16],40
same,"Plant response rating, Speedwell",[2]; [17],50
same,"Plant response rating (scale of 0 to 100), Speedwell","[2]; Preemergence, 31 g ai/ha",25
same,"Plant response rating, Speedwell",[2]; [18],25
same,"Plant response rating, Speedwell",[2]; [19],80
same,"Plant response rating, Speedwell",[2]; [20],100
same,"Plant response rating, Speedwell",[2]; [21],10
same,Galium plant response rating,[3]; [15],65
same,"Plant response rating, Galium",[3]; [16],75
same,"Plant response rating, Galium",[3]; [17],80
same,"Plant response rating (scale of 0 to 100), Galium","[3]; Preemergence, 31 g ai/ha",85
same,"Plant response rating, Galium",[3]; [18],95
same,"Plant response rating, Galium",[3]; [19],100
same,"Plant response rating, Galium",[3]; [20],100
same,"Plant response rating, Galium",[3]; [21],75
same,"Mustard, Wild plant response rating",[4]; [15],0
same,"Plant response rating, Mustard, Wild",[4]; [16],15
same,"Plant response rating, Mustard, Wild",[4]; [17],25
same,"Plant response rating (scale of 0 to 100), Mustard, Wild","[4]; Preemergence, 31 g ai/ha",10
same,"Plant response rating, Mustard, Wild",[4]; [18],20
same,"Plant response rating, Mustard, Wild",[4]; [19],40
same,"Plant response rating, Mustard, Wild",[4]; [20],65
same,"Plant response rating, Mustard, Wild",[4]; [21],0
same,Kochia plant response rating,[5]; [15],45
same,"Plant response rating, Kochia",[5]; [16],95
same,"Plant response rating, Kochia",[5]; [17],100
same,"Plant response rating (scale of 0 to 100), Kochia","[5]; Preemergence, 31 g ai/ha",10
same,"Plant response rating, Kochia",[5]; [18],10
same,"Plant response rating, Kochia",[5]; [19],35
same,"Plant response rating, Kochia",[5]; [20],40
same,"Plant response rating, Kochia",[5]; [21],70
same,Blackgrass plant response rating,[6]; [15],25
same,"Plant response rating, Blackgrass",[6]; [16],35
same,"Plant response rating, Blackgrass",[6]; [17],65
same,"Plant response rating (scale of 0 to 100), Blackgrass","[6]; Preemergence, 31 g ai/ha",5
same,"Plant response rating, Blackgrass",[6]; [18],20
same,"Plant response rating, Blackgrass",[6]; [19],30
same,Blackgrass plant response rating,[6]; [20],50
same,"Plant response rating, Blackgrass",[6]; [21],25
same,"Ryegrass, Italian plant response rating",[7]; [15],10
same,"Plant response rating, Ryegrass, Italian",[7]; [16],30
same,"Plant response rating, Ryegrass, Italian",[7]; [17],45
same,"Plant response rating (scale of 0 to 100), Ryegrass, Italian","[7]; Preemergence, 31 g ai/ha",20
same,"Plant response rating, Ryegrass, Italian",[7]; [18],30
same,"Plant response rating, Ryegrass, Italian",[7]; [19],60
same,"Plant response rating, Ryegrass, Italian",[7]; [20],70
same,"Plant response rating, Ryegrass, Italian",[7]; [21],10
same,"Bromegrass, Downy plant response rating",[8]; [15],5
same,"Plant response rating, Bromegrass, Downy",[8]; [16],5
same,"Plant response rating, Bromegrass, Downy",[8]; [17],5
same,"Plant response rating (scale of 0 to 100), Bromegrass, Downy","[8]; Preemergence, 31 g ai/ha",5
same,"Plant response rating, Bromegrass, Downy",[8]; [18],10
same,"Plant response rating, Bromegrass, Downy",[8]; [19],15
same,"Plant response rating, Bromegrass, Downy",[8]; [20],15
same,"Plant response rating, Bromegrass, Downy",[8]; [21],0
same,"Plant response rating (scale of 0 to 100), Chamomile",[9]; 31 g ai/ha,80
same,"Plant response rating, Chamomile","[9]; 62 g ai/ha, scale 0 to 100 (0 no effect, 100 complete control)",80
same,"Plant response rating, Chamomile","[9]; 125 g ai/ha, scale 0 to 100 (0 no effect, 100 complete control)",85
same,"Plant response rating, Chamomile","[9]; 250 g ai/ha, scale 0 to 100, 0 no effect, 100 complete control",85
same,Windgrass plant response rating,[10]; [15],10
same,"Plant response rating, Windgrass",[10]; [16],15
same,"Plant response rating, Windgrass",[10]; [17],15
same,"Plant response rating (scale of 0 to 100), Windgrass","[10]; Preemergence, 31 g ai/ha",5
same,"Plant response rating, Windgrass",[10]; [18],5
same,"Plant response rating, Windgrass",[10]; [19],20
same,"Plant response rating, Windgrass",[10]; [20],75
same,"Plant response rating, Windgrass",[10]; [21],10
same,"Foxtail, Green plant response rating",[11]; [15],50
same,"Plant response rating, Foxtail, Green",[11]; [16],70
same,"Plant response rating, Foxtail, Green",[11]; [17],80
same,"Plant response rating (scale of 0 to 100), Foxtail, Green","[11]; Preemergence, 31 g ai/ha",0
same,"Plant response rating, Foxtail, Green",[11]; [18],25
same,"Plant response rating, Foxtail, Green",[11]; [19],60
same,"Plant response rating, Foxtail, Green",[11]; [20],100
same,"Plant response rating, Foxtail, Green",[11]; [21],60
same,Deadnettle plant response rating,[12]; [15],20
same,"Plant response rating, Deadnettle",[12]; [16],30
same,"Plant response rating, Deadnettle",[12]; [17],30
same,"Plant response rating (scale of 0 to 100), Deadnettle","[12]; Preemergence, 31 g ai/ha",0
same,"Plant response rating, Deadnettle",[12]; [18],10
same,"Plant response rating, Deadnettle",[12]; [19],10
same,"Plant response rating, Deadnettle",[12]; [20],65
same,"Plant response rating, Deadnettle",[12]; [21],20
same,"Buckwheat, Wild plant response rating",[13]; [15],60
same,"Plant response rating, Buckwheat, Wild",[13]; [16],90
same,"Plant response rating, Buckwheat, Wild",[13]; [17],100
same,"Plant response rating (scale of 0 to 100), Buckwheat, Wild","[13]; Preemergence, 31 g ai/ha",70
same,"Plant response rating, Buckwheat, Wild",[13]; [18],60
same,"Plant response rating, Buckwheat, Wild",[13]; [19],70
same,"Plant response rating, Buckwheat, Wild",[13]; [20],85
same,"Plant response rating, Buckwheat, Wild",[13]; [21],75
same,Oilseed Rape plant response rating,[14]; [15],20
same,"Plant response rating, Oilseed Rape",[14]; [16],55
same,"Plant response rating, Oilseed Rape",[14]; [17],70
same,"Plant response rating (scale of 0 to 100), Oilseed Rape","[14]; Preemergence, 31 g ai/ha",0
same,"Plant response rating, Oilseed Rape",[14]; [18],0
same,"Plant response rating, Oilseed Rape",[14]; [19],10
same,"Plant response rating, Oilseed Rape",[14]; [20],15
same,"Plant response rating, Oilseed Rape",[14]; [21],20
